≈ marks a conversion by molar mass, not a printed value. Entries after “also recorded” stand apart in the source; their conditions may differ.
Tests used:
[1] = system: All Qualifying Uropathogens; test: Phase IIa microbiological response (micro-ITT population); format: in vivo, human; conditions: for Microbiological Failure, n (%) (95% Confidence Interval): n 8
E. coli = test: MIC by CLSI agar dilution, Example 1 Method 2; format: cell-based, Escherichia coli
Description: Antimicrobial activity was determined in a second study by […] using the CLSI recommended procedure in serial two-fold dilutions and the minimum inhibitory concentration (MIC) was determined as the lowest concentration of the compound that inhibited visible growth.
MICs were determined according to CLSI agar dilution guidelines.

S. saprophyticus = test: Phase IIa baseline uropathogen susceptibility testing (CLSI broth microdilution); format: cell-based; conditions: Staphylococcus saprophyticus; Participant 8; read-out: GEP MIC
Description: (§1) This phase IIa single center study evaluated the safety, tolerability, pharmacokinetics, and efficacy of oral gepotidacin 1500 mg BID for 5 days in female subjects with acute cystitis. Clean catch mid-stream urine specimens were obtained for quantitative culture by standard methods. Urine samples were taken from all participants pre-treatment (baseline) and at all post-baseline visits. All urine samples were sent to a central laboratory (PPD Global Clinical Laboratories, Highland Heights, Ky., USA) for Gram stain, quantitative culture, pathogen identification and susceptibility testing. See FIG. 1 for participant disposition and study outline.
(§2) Susceptibility testing by CLSI broth microdilution and gradient diffusion (fosfomycin only) was conducted (CLSI, 2015, Methods for dilution antimicrobial susceptibility tests for bacteria that grow aerobically; approved standard-tenth edition; and CLSI, 2018. Performance Standards for Antimicrobial Susceptibility Testing; Twenty-seventh Informational Supplement M100-S28). Inclusion in the microbiological intent-to-treat population (micro-ITT), required growth of a qualifying baseline uropathogen (≥10^5 CFU/mL). See FIG. 2 for the baseline algorithm.

qualifying uropathogens = test: as above; format: cell-based; conditions: 8 qualifying baseline uropathogens
Description: as §1, §2

[2] = Phase IIa clinical efficacy (ITT population); format: in vivo, human
Description: as §1
Serial blood and urine PK sampling were performed for the first dose of study treatment on Day 1 and for the time-matched dose on Day 4. Participants took all doses of gepotidacin with food and remained in the clinic to complete a total of 10 doses. Participants were instructed to return for the TOC (Day 10 to 13) and Follow-up (Day 28±3) Visits.
The mean total clinical symptom score in the ITT Population at Baseline was 7.9 (range: 4 to 12) for 4 categories of acute cystitis symptoms consisting of dysuria, frequency, urgency, and lower abdominal or suprapubic pain (score range for each category was 0 to 3). Of the 22 participants enrolled in this Phase IIa study, 19 (86%) and 18 participants (82%) achieved a clinical response of clinical success at the TOC and Follow-up Visits, respectively. […] Lower abdominal or suprapubic pain at Baseline was the most variable symptom category with half of the participants reporting low scores of 0 (27%) or 1 (23%) and the other half of participants reporting high scores of 2 (41%) or 3 (9%). For the other symptom categories, the majority of participants scored a 2.

E. coli ALL = test: Immunocompetent mouse kidney infection (pyelonephritis/UTI) model PK/PD; format: in vivo
Description: PK and PD studies using gepotidacin were conducted in murine (male CD-1 mice) thigh and kidney infections. The administered doses ranged from 1 to 200 mg/kg SC every 6 hours starting 1h post infection. Infected tissues were evaluated for bacterial burden at 24 h post infection (baseline controls at 1 h post infection).
Efficacy was determined against E. coli ALL, 997577, ATCC25922, IR5 and NCTC13441 (MICs of 1 to 4 μg/mL) in thigh-infected neutropenic (I−) mice and against E. coli ALL in kidney-infected immunocompetent (I+) and I− mice. The PopPK model was used to determine GEP exposures associated with efficacy. PK-PD analyses were conducted using Phoenix WinNonLin 6.3 (Pharsight). The change in login colony forming units (CFU) from baseline were correlated with free drug (f) AUC:MIC using an inhibitory model from the Phoenix library, and model parameter values for each isolate were used to calculate the plasma fAUC:MIC associated with stasis, 1- or 2-login reductions in CFU.
PD studies were conducted using thigh and/or kidney infection models in neutropenic or competent mice (N=5/group). Mice were infected with a bacterial suspension in log phase: 100 μL in the left thigh muscle or 50 μL in each of both kidneys (100 μl total). Final inocula across all isolates were 6.0 to 7.0 login CFU/mouse. Dose-ranging studies were conducted with 5 isolates (see Table 1). Starting 1 hr after infection, GEP was given SC (0.2 mL/mouse) at discrete doses of 1-200 mg/kg every 6 hours (q6) for a 24-hour period (4 doses in total). Mice were euthanized 24 hr after start of therapy (6 hr after the last dose), and infected thighs or kidneys were processed to determine viable bacterial counts (CFU). Baseline CFU were obtained from untreated mice at 1 hr post infection and growth control CFU from saline-treated mice at 24 hr.
NCA analyses were conducted with the simulated data.
PK-PD analysis was conducted using Phoenix WinNonLin 6.3 (Pharsight): • Log10 colony forming units (CFU) from each group were correlated with PK-PD parameters using several inhibitory models from the Phoenix library. • Model parameter values for each isolate were used to calculate the PK-PD parameter value associated with stasis, 1-log or 2-log reductions from baseline 1 h controls.

## O=c1ccc2ncc(=O)n3c2n1C[C@H]3CN1CCC(NCc2cc3c(cn2)OCCC3)CC1 [gepotidacin, (2R)-2-({4-[(3,4-dihydro-2H-pyrano[2,3-c]pyridin-6-ylmethyl)amino]-1-piperidinyl}methyl)-1,2-dihydro-3H,8H-2a,5,8a-triazaacenaphthylene-3,8-dione]
[1]; Follow-up Visit
  Microbiological Failure, n (%) (95% Confidence Interval): 2 (25) (3-65)
[1]; TOC Visit
  Microbiological Failure, n (%) (95% Confidence Interval): 1 (13) (<1-53)
[1]; baseline uropathogen vs same uropathogen at subsequent visits
  reduction in susceptibility to gepotidacin (≥4-fold increase in MIC): no evidence of reduction in susceptibility; also recorded: No participants developed post-treatment uropathogens with reduced susceptibility
E. coli; 254 isolates
  MICs ranged: ≤0.06 to 64 mg/L
E. coli; 254 isolates, enriched for drug resistance
  % of the tested isolates inhibited at ≤8 mg/L: 96.1%
E. coli; Escherichia coli, n = 254
  MIC50: 2 µg/mL (≈ 4.46 µM)
  MIC90: 8 µg/mL (≈ 17.8 µM)
E. coli; KPC producing E. coli
  % of isolates inhibited at ≤8 mg/L: 94.6%
E. coli; NDM producing E. coli
  % of isolates inhibited at ≤8 mg/L: 100%
E. coli; OXA-48-like producing E. coli
  % of isolates inhibited at ≤8 mg/L: 92.1%
E. coli; QRDR data for 188 of 254 isolates
  Effect of levofloxacin non-susceptibility or QRDR substitutions in GyrA and ParC on activity: unaffected
E. coli; n = 254
  Number of Isolates at Gepotidacin MIC 0.5 mg/L: 22
  Number of Isolates at Gepotidacin MIC 1 mg/L: 56
  Number of Isolates at Gepotidacin MIC 2 mg/L: 92
  Number of Isolates at Gepotidacin MIC 4 mg/L: 37
  Number of Isolates at Gepotidacin MIC 8 mg/L: 33
  Number of Isolates at Gepotidacin MIC ≤0.25 mg/L: 4
  Number of Isolates at Gepotidacin MIC ≥16 mg/L: 10
S. saprophyticus
  MIC: 0.06 µg/mL (≈ 0.134 µM)
Qualifying uropathogens
  Gepotidacin MICs ranged: 0.06 to 4 µg/mL
[2]; TOC Visit, 22 participants
  participants with clinical response of clinical success: 19 (86%)
[2]; at Follow-up
  participants with symptom resolution: 20 participants
[2]; at TOC
  participants with symptom resolution (clinical signs and symptom score of 0): 19 participants
[2]; dysuria, frequency, urgency, lower abdominal pain
  time to significant improvement of clinical symptoms (all subjects): 24 to 48 h
E. coli ALL; I+ (non-neutropenic) mice
  PK-PD target (fAUC/MIC) in immunocompetent vs neutropenic mice: reduced by approx. half
E. coli ALL; Strain ALL, Competent UTI
  Daily fAUC/MIC for 1-log Drop: 3.3
  Daily fAUC/MIC for 2-log Drop: 8.1
  Daily fAUC/MIC for Stasis: 0.7
